Read-outs that look alike come from different tables or passages of the source.
Legend:
[1] = molecular target: T1, Human Neuropeptide Y2 Receptor (Homo sapiens, UniProt P49146); experiment: Radioligand binding competition assay (RLB)
T1 construct: purchased CHEMICON HTS066M
T1 sequence (P49146 1-381): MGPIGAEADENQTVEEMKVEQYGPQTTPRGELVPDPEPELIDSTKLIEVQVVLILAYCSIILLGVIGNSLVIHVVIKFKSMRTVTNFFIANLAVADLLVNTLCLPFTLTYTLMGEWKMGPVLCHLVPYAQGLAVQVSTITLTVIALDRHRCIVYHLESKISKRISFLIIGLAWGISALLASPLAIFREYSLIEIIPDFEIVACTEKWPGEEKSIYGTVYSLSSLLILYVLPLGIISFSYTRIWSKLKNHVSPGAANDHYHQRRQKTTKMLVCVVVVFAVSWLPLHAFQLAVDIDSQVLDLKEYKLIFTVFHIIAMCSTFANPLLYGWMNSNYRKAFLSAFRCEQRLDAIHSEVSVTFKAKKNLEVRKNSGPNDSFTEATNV
Summary of the method: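 Competition binding used membranes expressing the receptor (0.5 μg protein/well) in 50 mM HEPES, 5 mM MgCl2, 1 mM CaCl2, pH 7.4 with 0.2% ovalbumin, incubated 2 h at room temperature with shaking. Bound radioligand was collected by filtration onto PEI-soaked GF/C filters and counted; IC50 from nonlinear sigmoidal fits.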

[2] = molecular target: T2, human NPY1 receptor (hY1R) (Homo sapiens, UniProt P25929); experiment: HTRF cAMP Gi assay, hY1R; format: cell-based; details: CHO-K1 cells
T2 construct: expressed in transfected cells; host or cells: CHO-K1
T2 sequence (P25929 1-384): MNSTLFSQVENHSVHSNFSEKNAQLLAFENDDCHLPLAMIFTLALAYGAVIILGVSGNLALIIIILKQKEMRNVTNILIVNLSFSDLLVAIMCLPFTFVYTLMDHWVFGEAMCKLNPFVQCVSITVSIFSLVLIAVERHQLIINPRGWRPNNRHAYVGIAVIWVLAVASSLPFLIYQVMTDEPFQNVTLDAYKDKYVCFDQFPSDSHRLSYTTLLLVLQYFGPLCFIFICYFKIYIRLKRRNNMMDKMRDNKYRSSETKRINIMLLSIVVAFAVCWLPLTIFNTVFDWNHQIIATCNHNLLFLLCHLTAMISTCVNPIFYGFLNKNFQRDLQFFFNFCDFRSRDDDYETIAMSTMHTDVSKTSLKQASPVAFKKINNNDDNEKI
Description: (§1) Briefly, the production of intracellular cAMP will generate a competition between unlabeled cAMP and exogenously added d2-cAMP for anti-cAMP antibodies conjugated to cryptate. CHO-K1 cells stably expressing the human NPY1, NPY2, NPY4 and NPY5 receptors were used with the cells brought to life from a frozen stock immediately before assay performance. 2000 cells per well were applied for all four NPY receptor subtype assays. A 384-well format was used applying a total volume of 20 μl using 5 μl cells, 2.5 μl peptide agonist, 2.5 μl forskolin and 5 μl of each of the fluorophores. […] Concentration-response evaluation of compounds was performed with 11 concentrations of agonist peptides (covering 3 decades). EC50 values were calculated by nonlinear regression using sigmoid concentration-response with variable slope.

[3] = molecular target: T3, human NPY4 receptor (hY4R) (Homo sapiens, UniProt P50391); experiment: HTRF cAMP Gi assay, hY4R; format: cell-based; details: CHO-K1 cells
T3 construct: expressed in transfected cells; host or cells: CHO-K1

Solubility determination = details: for Sol6: pH 6; for Sol7: pH 7
Summary of the method: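 Shake-flask style: 10 mg/ml peptide (TFA salt), 0.1 M sodium diphosphate pH 6.4/7.0, 600 rpm, 2 h, RT; filter; dilute 1 mg/ml in 50% MeCN; RP-UPLC, 0–100% B over 2 min, 50 °C. Solubility = sample/control area ratio. Final pH recorded.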

[4] = molecular target: T4, human NPY5 receptor (hY5R) (Homo sapiens, UniProt Q15761); experiment: HTRF cAMP Gi assay, hY5R
T4 sequence (Q15761 1-445): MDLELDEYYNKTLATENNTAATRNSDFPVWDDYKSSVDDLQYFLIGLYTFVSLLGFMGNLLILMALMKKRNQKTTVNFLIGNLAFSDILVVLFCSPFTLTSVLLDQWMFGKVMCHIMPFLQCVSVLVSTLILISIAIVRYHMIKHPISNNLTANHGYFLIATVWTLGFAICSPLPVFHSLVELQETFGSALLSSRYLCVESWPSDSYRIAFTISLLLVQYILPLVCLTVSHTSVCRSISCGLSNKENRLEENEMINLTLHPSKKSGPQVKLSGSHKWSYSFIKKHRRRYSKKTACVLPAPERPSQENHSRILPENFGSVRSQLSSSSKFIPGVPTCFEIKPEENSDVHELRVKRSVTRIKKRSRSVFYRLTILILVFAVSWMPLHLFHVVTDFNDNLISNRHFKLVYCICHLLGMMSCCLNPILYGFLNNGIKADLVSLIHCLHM
Description: as §1

[5] = Table 3, 125I-PYY(1-36) competition, read-out: Ki

T3 sequence (P50391 whole entry): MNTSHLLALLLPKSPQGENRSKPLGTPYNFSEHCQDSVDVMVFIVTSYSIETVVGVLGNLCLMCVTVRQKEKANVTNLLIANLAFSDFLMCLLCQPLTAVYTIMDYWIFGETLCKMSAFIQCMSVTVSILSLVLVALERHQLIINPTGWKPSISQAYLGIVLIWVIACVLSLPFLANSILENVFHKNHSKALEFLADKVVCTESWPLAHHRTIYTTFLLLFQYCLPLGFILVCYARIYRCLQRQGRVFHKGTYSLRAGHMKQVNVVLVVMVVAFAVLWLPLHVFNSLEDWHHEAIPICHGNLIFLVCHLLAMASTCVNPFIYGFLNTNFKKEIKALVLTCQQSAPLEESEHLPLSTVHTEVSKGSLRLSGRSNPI

Ki [1, 5] [nM] | EC50 [2] [µM] | EC50 [3] [µM] | Sol6 (Solubility determination) [mg/mL] | Sol7 (Solubility determination) [mg/mL] | EC50 [4] [µM] | Ki ([1]; Table 8, DMSO stock, read-out: hY2R RLB Ki (nM) DMSO) [nM] | SMILES
2.18 | > 5 | > 5 | 9.7 | 10.0 | > 5 |  | CC[C@H](C)[C@H](NC(=O)[C@H](CCC(=O)O)NC(=O)[C@H](CCC(=O)O)NC(=O)[C@@H]1CCCN1C(=O)[C@H](CO)NC(=O)[C@H](C)NC(=O)[C@H](C)NC(=O)[C@H](CCC(=O)O)NC(=O)[C@H](CCC(=O)O)NC(=O)[C@@H]1CCCN1C(=O)[C@H](CCCCNC(=O)CCCCCNC(=O)CC[C@H](NC(=O)CCCCCCCCCCCCCCCCC(=O)O)C(=O)O)NC(=O)[C@H](CCC(=O)O)NC(=O)[C@@H]1CCCN1C(=O)[C@H](C)NC(=O)CC(C)C)C(=O)N[C@@H](CCC(N)=O)C(=O)N[C@@H](CCCNC(=N)N)C(=O)N[C@@H](Cc1ccc(O)cc1)C(=O)N[C@@H](Cc1ccc(O)cc1)C(=O)N[C@H](C(=O)N[C@@H](CO)C(=O)N[C@@H](CC(C)C)C(=O)N[C@@H](CCCNC(=N)N)C(=O)N[C@@H](Cc1c[nH]cn1)C(=O)N[C@@H](Cc1ccc(O)cc1)C(=O)N[C@@H](Cc1ccc(O)cc1)C(=O)N[C@@H](CC(N)=O)C(=O)N[C@@H](Cc1c[nH]c2ccccc12)C(=O)N[C@@H](CC(C)C)C(=O)N[C@H](C(=O)N[C@@H](CCCNC(=N)N)C(=O)N[C@@H](CCC(N)=O)C(=O)N[C@@H](CCCNC(=N)N)C(=O)N[C@@H](Cc1ccc(O)cc1)C(N)=O)[C@@H](C)O)C(C)C [Compound 150, N{alpha-4}-(3-methylbutanoyl)-N{epsilon-7}-(6-[(4S)-4-carboxy-4-(17-carboxyheptadecanamido)butanamido]hexanoyl)-[4A,7K,9E,11A,17I,18Q,22V,28Y,30W,31L]-hPYY(4-36)]
0.93 | > 5 | > 5 | 10.0 | >10.0 | > 5 | 6.6 | CC[C@H](C)[C@H](NC(=O)[C@H](CCC(=O)O)NC(=O)[C@H](CCC(=O)O)NC(=O)[C@@H]1CCCN1C(=O)[C@H](CO)NC(=O)[C@H](C)NC(=O)[C@H](CC(=O)O)NC(=O)[C@H](CCC(=O)O)NC(=O)[C@H](CCC(=O)O)NC(=O)[C@@H]1CCCN1C(=O)[C@H](CCCCNC(=O)CCCCCNC(=O)CC[C@H](NC(=O)CCCCCCCCCCCCCCCCC(=O)O)C(=O)O)NC(=O)[C@H](C)NC(=O)[C@@H]1CCCN1C(=O)[C@H](C)NC(=O)CC(C)C)C(=O)N[C@@H](CCC(N)=O)C(=O)N[C@@H](CCCNC(=N)N)C(=O)N[C@@H](Cc1ccc(O)cc1)C(=O)N[C@@H](Cc1ccc(O)cc1)C(=O)N[C@H](C(=O)N[C@@H](CO)C(=O)N[C@@H](CC(C)C)C(=O)N[C@@H](CCCNC(=N)N)C(=O)N[C@@H](Cc1c[nH]cn1)C(=O)N[C@@H](Cc1ccc(O)cc1)C(=O)N[C@@H](Cc1ccc(O)cc1)C(=O)N[C@@H](CC(N)=O)C(=O)N[C@@H](Cc1c[nH]c2ccccc12)C(=O)N[C@@H](CC(C)C)C(=O)N[C@H](C(=O)N[C@@H](CCCNC(=N)N)C(=O)N[C@@H](CCC(N)=O)C(=O)N[C@@H](CCCNC(=N)N)C(=O)N[C@@H](Cc1ccc(O)cc1)C(N)=O)[C@@H](C)O)C(C)C [Compound 63, N{alpha-4}-(3-methylbutanoyl)-N{epsilon-7}-(6-[(4S)-4-carboxy-4-(17-carboxyheptadecanamido)butanamido]hexanoyl)-[4A,6A,7K,9E,17I,18Q,22V,28Y,30W,31L]-hPYY(4-36)]
0.64 | > 5 | > 5 | 9.1 | 9.1 | > 5 |  | CC[C@H](C)[C@H](NC(=O)[C@H](CCC(=O)O)NC(=O)[C@H](CCC(=O)O)NC(=O)[C@@H]1CCCN1C(=O)[C@@H](NC(=O)[C@H](C)NC(=O)[C@H](CC(=O)O)NC(=O)[C@H](C)NC(=O)[C@H](CCC(=O)O)NC(=O)[C@@H]1CCCN1C(=O)[C@H](CCCCNC(=O)CCCCCNC(=O)CC[C@H](NC(=O)CCCCCCCCCCCCCCCCC(=O)O)C(=O)O)NC(=O)[C@H](CCC(=O)O)NC(=O)[C@@H]1CCCN1C(=O)[C@H](C)NC(=O)CC(C)C)[C@@H](C)O)C(=O)N[C@@H](CCC(N)=O)C(=O)N[C@@H](CCCNC(=N)N)C(=O)N[C@@H](Cc1ccc(O)cc1)C(=O)N[C@@H](Cc1ccc(O)cc1)C(=O)N[C@H](C(=O)N[C@@H](C)C(=O)N[C@@H](CC(C)C)C(=O)N[C@@H](CCCNC(=N)N)C(=O)N[C@@H](Cc1c[nH]cn1)C(=O)N[C@@H](Cc1ccc(O)cc1)C(=O)N[C@@H](Cc1ccc(O)cc1)C(=O)N[C@@H](CC(N)=O)C(=O)N[C@@H](Cc1c[nH]c2ccccc12)C(=O)N[C@@H](CC(C)C)C(=O)N[C@H](C(=O)N[C@@H](CCCNC(=N)N)C(=O)N[C@@H](CCC(N)=O)C(=O)N[C@@H](CCCNC(=N)N)C(=O)N[C@@H](Cc1ccc(O)cc1)C(N)=O)[C@@H](C)O)C(C)C [Compound 184, N{alpha-4}-(3-methylbutanoyl)-N{epsilon-7}-(6-[(4S)-4-carboxy-4-(17-carboxyheptadecanamido)butanamido]hexanoyl)-[4A,7K,9E,10A,13T,17I,18Q,22V,23A,28Y,30W,31L]-hPYY(4-36)]
1 | > 5 | > 5 | 10.0 | 9.5 | > 5 |  | CC[C@H](C)[C@H](NC(=O)[C@H](CCC(=O)O)NC(=O)[C@H](CCC(=O)O)NC(=O)[C@@H]1CCCN1C(=O)[C@H](CCC(=O)O)NC(=O)[C@H](C)NC(=O)[C@H](CC(=O)O)NC(=O)[C@H](CCC(=O)O)NC(=O)[C@@H]1CCCN1C(=O)[C@@H]1CCCN1C(=O)[C@H](CCCCNC(=O)CCCCCNC(=O)CC[C@H](NC(=O)CCCCCCCCCCCCCCCCC(=O)O)C(=O)O)NC(=O)[C@H](CCC(=O)O)NC(=O)[C@@H]1CCCN1C(=O)[C@H](C)NC(=O)CC(C)C)C(=O)N[C@@H](CCC(N)=O)C(=O)N[C@@H](CCCNC(=N)N)C(=O)N[C@@H](Cc1ccc(O)cc1)C(=O)N[C@@H](Cc1ccc(O)cc1)C(=O)N[C@H](C(=O)N[C@@H](CO)C(=O)N[C@@H](CC(C)C)C(=O)N[C@@H](CCCNC(=N)N)C(=O)N[C@@H](Cc1c[nH]cn1)C(=O)N[C@@H](Cc1ccc(O)cc1)C(=O)N[C@@H](Cc1ccc(O)cc1)C(=O)N[C@@H](CC(N)=O)C(=O)N[C@@H](Cc1c[nH]c2ccccc12)C(=O)N[C@@H](CC(C)C)C(=O)N[C@H](C(=O)N[C@@H](CCCNC(=N)N)C(=O)N[C@@H](CCC(N)=O)C(=O)N[C@@H](CCCNC(=N)N)C(=O)N[C@@H](Cc1ccc(O)cc1)C(N)=O)[C@@H](C)O)C(C)C [Compound 118, N{alpha-4}-(3-methylbutanoyl)-N{epsilon-7}-(6-[(4S)-4-carboxy-4-(17-carboxyheptadecanamido)butanamido]hexanoyl)-[4A,7K,9P,13E,17I,18Q,22V,28Y,30W,31L]-hPYY(4-36)]
